# Values quoted from earlier work, collected in article PMC7933701 (Biochemistry and Biophysics Reports, 2021).
# Test system: PSA
# Conditions: peptide carrier of doxorubicin prodrug
substance,measurement,value
Mu-His-Ser-Ser-Lys-Leu-Gln-Leu,hydrolysis by PSA (in words),precisely hydrolysable by PSA
